The values below come from US6689357B2, “Non-obligate predatory bacterium Burkholderia casidae and uses thereof” (Virginia Tech Intellectual Properties, Inc., priority 1997, dated 2004).

≈ marks a conversion by molar mass, not a printed value.

This assay has as its system B. casidae strain 2.2N. Briefly: microbe, parasite or virus in culture. To be noted: for MIC: Burkholderia, 2.2N, read-out: Minimal Inhibitory Concentration; for strain 2.2N resistant or susceptible to the antibiotic: Sceptor Pseudomonas/Resistant MIC Panel; for Minimal Inhibitory Concentration: against B. casidae strain 2.2N. It counts as cell-based, Burkholderia casidae.

For the compound `NC[C@H]1O[C@H](O[C@H]2[C@H](O)[C@@H](O[C@H]3O[C@H](CO)[C@@H](O)[C@H](N)[C@H]3O)[C@H](N)C[C@@H]2N)[C@H](N)C[C@@H]1O` [Tobramycin], the MIC is over 16 µg/mL and the “strain 2.2N resistant or susceptible to the antibiotic” value (“strain 2.2N resistant or susceptible” for short) is on record as “resistant”.
For the compound `CN(C)[C@@H]1C(O)=C(C(N)=O)C(=O)[C@@]2(O)C(O)=C3C(=O)c4c(O)cccc4[C@@](C)(O)[C@H]3C[C@@H]12` [Tetracycline], the MIC is over 8 µg/mL.
With `CCN1CCN(C(=O)N[C@@H](C(=O)N[C@@H]2C(=O)N3C(C(=O)O)=C(CSc4nnnn4C)CS[C@H]23)c2ccc(O)cc2)C(=O)C1=O` [Cefoperazone], the MIC was over 16 µg/mL and the “strain 2.2N resistant or susceptible” value is given as “resistant”.
Take `CO/N=C(\C(=O)N[C@@H]1C(=O)N2C(C(=O)O)=C(COC(C)=O)CS[C@H]12)c1csc(N)n1` [Cefotaxime]: the MIC is 64 µg/mL (≈ 141 µM) and the “strain 2.2N resistant or susceptible” value is on record as “susceptible”.
With Gentamycin, the “strain 2.2N resistant or susceptible” value is “resistant” and the “Minimal Inhibitory Concentration” value was over 16 micrograms/ml.
On the same counts, the results for `CC(C)(O/N=C(\C(=O)N[C@@H]1C(=O)N2C(C(=O)[O-])=C(C[n+]3ccccc3)CS[C@H]12)c1csc(N)n1)C(=O)O` [Ceftazimine] are “susceptible” and 8 micrograms/ml.
Regarding `NCC[C@H](O)C(=O)N[C@@H]1C[C@H](N)[C@@H](O[C@H]2O[C@H](CN)[C@@H](O)[C@H](O)[C@H]2O)[C@H](O)[C@H]1O[C@H]1O[C@H](CO)[C@@H](O)[C@H](N)[C@H]1O` [Amikacin], the MIC is over 64 µg/mL and the “strain 2.2N resistant or susceptible” value is reported as “resistant”.
On the same counts, the results for `CO/N=C(\C(=O)N[C@@H]1C(=O)N2C(C(=O)O)=C(CSc3nc(=O)c(=O)[nH]n3C)CS[C@H]12)c1csc(N)n1` [Ceftriaxone] are 128 µg/mL (≈ 231 µM) and “susceptible”.
Take `CO/N=C(\C(=O)N[C@@H]1C(=O)N2C(C(=O)O)=CCS[C@H]12)c1csc(N)n1` [Ceftizoxime]: the MIC is 16 µg/mL (≈ 41.7 µM) and the “strain 2.2N resistant or susceptible” value was “susceptible”.
As to `C[C@@H](O)[C@H]1C(=O)N2C(C(=O)O)=C(SCCN=CN)C[C@H]12` [Imipenem], the MIC was 16 µg/mL (≈ 53.4 µM).
Turning to Tricarcillin/Clavulinic Acid, the “strain 2.2N resistant or susceptible” value is on record as “resistant” and the “Minimal Inhibitory Concentration” value is given as >128/2.
Turning to `O=C(O)c1cn(C2CC2)c2cc(N3CCNCC3)c(F)cc2c1=O` [ciprofloxacin], the “strain 2.2N resistant or susceptible” value is given as “susceptible”.
For the compound Trimethoprim/Sulfamethoxazole, the “strain 2.2N resistant or susceptible” value is “susceptible” and the “Minimal Inhibitory Concentration” value is on record as 4/76.
